Values belong to the compound of their own block, whether it stands above or below them.
How the values were obtained:
RBP = RBP (Homo sapiens, UniProt P02753); assay: Fluorescence quenching study of MPR binding to RBP
Protocol: Apo-RBP at 0.5 μM was incubated with 0, 0.25, 0.5, 1 and 2 μM of MPR in PBS at room temperature for 1 hour, respectively. As controls, the same concentration of Apo-RBP was also incubated with 1 μM of HPR or 1 μM of atROL. All mixtures contained 0.2% Ethanol (v/v). The emission spectra were measured between 290 nm to 550 nm with excitation wavelength at 280 nm and 3 nm bandpass.

TTR binding to RBP = TTR binding to RBP (Homo sapiens, UniProt P02753); assay: Size exclusion study of TTR binding to RBP; settings: 10 μM RBP, 50 μM MPR, 10 μM TTR
Protocol: Apo-RBP at 10 μM was incubated with 50 μM of MPR in PBS at room temperature for 1 hour. 10 μM of TTR was then added to the solution, and the mixture was incubated for another hour at room temperature. […] of the sample mixtures with and without TTR addition were analyzed by BioRad Bio-Sil SEC 125 Gel Filtration Column (300×7.8 mm). In control experiments, atROL-RBP and atROL-RBP-TTR mixture were analyzed in the same manner.

ABCA4−/− mice = assay: HPR drug holiday after 28 days of treatment; assay type: in vivo, mouse; settings: 28-day drug holiday
Protocol: HPR (10 mg/kg in DMSO) was administered to ABCA4−/− mice daily for a period of 28 days. Control ABCA4−/− mice received only DMSO for the same period. […] Importantly, the observed reductions in lipofuscin autofluorescence persist long after cessation of HPR therapy. HPR (10 mg/kg), or DMSO, administration was discontinued following 28 days of treatment and re-evaluated A2E and precursor levels after 2 weeks and after 4 weeks.
We examined eyecup extracts by HPLC and employed detection by absorbance and fluorimetry. Identity of the indicated peaks was confirmed by on-line spectral analysis and by co-elution with authentic standards. […] Further, the A2E and precursor (A2PE-H2 and A2PE) levels after a […] or 28-day drug holiday remained at or near the levels immediately following 28 days of treatment (i.e., ca. 50% reduction relative to control), although after the 28-day drug holiday, the amount of A2E and precursor (A2PE-H2 and A2PE) had increased by a few percentage points relative to the 12-day drug holiday levels. […] It is clear that peak fluorescence tracks with the abundance of A2E, A2PE and A2PE-H2.
This effect cannot be attributed to long-term reductions in serum retinol as serum retinol had returned to baseline 48 hours following the last HPR dose. […] Furthermore, HPR reduces serum retinol levels, which leads to a reduction in the level of retinol in the eyes of treated animals. Once the level of retinol has been reduced in the eye, there is a time lag in the subsequent increase in retinol levels in the eye. Alone or in combination, the production of A2E, A2PE and A2PE-H2 in the eye remains low despite the absence of HPR in the serum or the eye.

CRALBP [1] = target: T1, CRALBP (Homo sapiens, UniProt P12271); assay: Fluorescence quenching study of binding to CRALBP
T1 construct: made in house
Protocol: Apo-CRALBP at 0.5 μM was incubated with 1 μM of 11-cis Retinal (11cRAL), all-trans retinal (atRAL) or N-4-hydroxyphenyl retinamide (HPR) in PBS at room temperature for 1 hour. As a control, same volume of DMSO was added to the Apo-CRABLP solution. The emission spectra were measured between 290 nm to 500 nm with excitation wavelength at 280 nm and 2 nm bandpass (See FIG. 7).
Quenching of CRALBP protein fluorescence with 11-cis retinal (11cRAL). The fluorescence emission of recombinant apo-CRALBP (0.5 μM) was measured using 280 nm excitation (“no 11cRAL”).
Quenching of CRALBP protein fluorescence with HPR. The data shown were obtained using an experimental design identical to that described above. The fluorescence emission of recombinant apo-CRALBP was measured using 280 nm excitation (“no HPR”).
We performed an analysis of the dissociation constant (KD) for 11cRAL and HPR binding to apo-CRALBP (see FIG. 15). […] This calculation is based upon the ligand concentration necessary to fully quench the protein fluorescence. The data reveal that both 11cRAL and HPR quench apo-CRALBP fluorescence maximally at ˜1.5 μM. Thus, although apo-CRALBP is described as an 11 cis-specific retinoid binding protein, it appears to bind HPR as well.

CRALBP [2] = target: T1, CRALBP; assay: Size exclusion chromatography study of binding to CRALBP; settings: 4 μM apo-CRALBP, 8 μM ligand
Protocol: Apo-CRALBP at 4 μM was incubated with 8 μM of 11cRAL, atRAL or HPR in PBS at room temperature for 1 hour. In control experiment, equivalent volume of DMSO was added to the CRALBP solution. 50 μl of each sample mixture was analyzed by BioRad Bio-Sil SEC125 Gel Filtration Column (300×7.8 mm).

apo-CRALBP = target: T2, apo-CRALBP (Homo sapiens, UniProt P12271); assay: Ni+ affinity column and spectroscopic analysis of binding to CRALBP; settings: 10 μM apo-CRALBP, 20 μM ligand
T2 construct: made in house
Protocol: In order to confirm data obtained during fluorescence analysis of HPR binding to CRALBP, a second analysis was performed using affinity chromatography and spectroscopic analysis. The recombinant apo-CRALBP was constructed with a histidine tag which is utilized to purify the protein on a Ni+ affinity column following expression cloning. Here, we utilized this feature of apo-CRALBP to specifically “trap” the protein and any protein-ligand species for spectroscopic analysis. Two binding mixtures were prepared containing apo-CRALBP (10 μM) and either 11cRAL (20 μM) or HPR (20 μM). In control experiments for the analysis of non-specific ligand binding onto the affinity matrix, we prepared two additional mixtures containing only 11cRAL (20 μM) or HPR (20 μM) in binding buffer. The binding mixtures were passed through separate Ni+ affinity columns and the columns were washed extensively to elute unbound protein and ligand. Following the addition of elution buffer, the eluted fractions were analyzed by spectroscopy. […] Instead, two absorption maxima are seen: one at 280 nm and a second at 360 nm, which is attributable to the absorption of HPR (see FIG. 14).

T1 sequence (P12271 whole entry, species assumed): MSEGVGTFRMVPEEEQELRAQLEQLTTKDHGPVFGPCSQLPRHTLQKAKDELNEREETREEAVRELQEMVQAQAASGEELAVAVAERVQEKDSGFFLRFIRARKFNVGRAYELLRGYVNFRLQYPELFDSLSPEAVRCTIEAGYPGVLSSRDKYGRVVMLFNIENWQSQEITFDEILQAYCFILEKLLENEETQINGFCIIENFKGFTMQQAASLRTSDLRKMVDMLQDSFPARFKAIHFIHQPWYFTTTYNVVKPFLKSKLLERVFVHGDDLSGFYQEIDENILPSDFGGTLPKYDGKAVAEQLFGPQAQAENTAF
T2 sequence (P12271 whole entry, species assumed): as above

quenching of RBP fluorescence (RBP; 0.5 μM apo-RBP, 0-2 μM MPR): concentration-dependent quenching | concentration at which quenching of RBP fluorescence saturated (RBP; 0.5 μM of RBP): 1 µM | degree of RBP fluorescence quenching compared with other ligands (RBP; 1 μM controls): smaller than those by atROL and HPR | binding of ligand-RBP to TTR (TTR binding to RBP): did not bind to TTR | detection in the eyes after drug holiday (ABCA4−/− mice): unable to detect
Compound: COc1ccc(NC(=O)\C=C(C)/C=C/C=C(C)\C=C\C2=C(C)CCCC2(C)C)cc1 (stereo in doubt) [MPR, N-(4-methoxyphenyl)retinamide]

concentration of maximal quenching of apo-CRALBP fluorescence (CRALBP [1]): ~1.5 µM | quenching of CRALBP fluorescence emission (CRALBP [1]; 0.5 μM apo-CRALBP, 1 μM ligand, 1 hour, vs DMSO): highest degree of quenching | concentration dependence of CRALBP protein fluorescence quenching (CRALBP [1]; 0.5 μM recombinant apo-CRALBP, 280 nm excitation): concentration dependent manner | Kd (CRALBP [1]; transformation of fluorescence quenching data, read-out: dissociation constant (KD) for binding to apo-CRALBP): ~30 nM | binding to apo-CRALBP by absorption spectra of eluted fraction (apo-CRALBP): bound to CRALBP
Compound: CC1=C(/C=C/C(C)=C/C=C/C(C)=C/C=O)C(C)(C)CCC1 [11cRAL, 11-cis retinal]
ligand bound to CRALBP (monomer elution peak absorbance) (CRALBP [2]): a majority of the CRALBP is bound with ligand

Compound: CC1=C(/C=C/C(C)=C/C=C/C(C)=C/C=O)C(C)(C)CCC1 [atRAL, all-trans retinal]
ligand bound to CRALBP (monomer elution peak absorbance) (CRALBP [2]): Less than half of the atRAL is bound to CRALBP

binding of ligand-RBP to TTR (TTR binding to RBP): binds to TTR
Compound: CC1=C(/C=C/C(C)=C/C=C/C(C)=C/CO)C(C)(C)CCC1 [atROL, all-trans retinol]

Source: patent US8410168B2, “Methods and compositions for treating ophthalmic conditions with retinyl derivatives” (Acucela, Inc., priority 2004, dated 2013)
